Read-outs that look alike come from different tables or passages of the source.
Columns and labels:
[1] = test system: Raphanus sativus L. cv. Cherry Belle cotyledons; assay: Radish cotyledon bioassay (expansion growth and chlorophyll accumulation); type: in vivo; design: Chlorophyll a + b: unit not given here; settings: for Change in fresh weight: continuous illumination, 25° C., ten cotyledons; for activity at 20 µg/mL: Raphanus sativus, read-out: Change in fresh weight, % of control; for ethylene-like activities (summary of the examples) / cytokinin-like activities (summary of the examples): summary statement in the description
Source text: Radish cotyledon bioassay: This bioassay using Raphanus sativus L. cv. Cherry Belle cotyledons was developed by Letham, DS (Physiologia Plantarum 25, 391–396, 1971, incorporated by reference in its entirety) to evaluate the efficacy of cytokinin on cell enlargement. Success using this assay is not restricted to radish. […] In addition to their effect on cell division, cytokinin plays a major role in driving cell enlargement. Compounds in this class of phytohormone and with cytokinin activity also help maintain photosynthetic activity and productivity and abolish proteolytic activity. In cotyledon leaf systems, a requirement for cytokinin is critical and removal of the roots (i.e. the presumed source of cytokinin) renders the cotyledon leaves unable to expand. Exposure to cytokinin (0.02–22 μg/ml) results in a dramatic increase in fresh weight of cotyledons within 72 hours. This effect is not observed with either gibberellin or auxin and is usually delayed or inhibited by abscisic acid and the ethylene precursor, 1-aminocyclopropane-1-carboxylic acid (ACC). […] Thus, the mode of action of cytokinin in this system appears to be similar to that of indole-3-acetic acid (IAA) in auxin-induced stem elongation, a process that depends on an increase in the mechanical extensibility of the cell wall. However, cytokinin antagonizes IAA-mediated cell elongation and appears to do so by promoting ethylene production. Furthermore, cytokinin-induced cell expansion is not usually accompanied by proton (H^+) extrusion and no change in plasma membrane ATPase activity is evident.
Seeds of Raphanus sativus L. cv. Cherry-Belle were germinated in darkness at 24° C. for 36 h in Petri dishes containing filter paper wetted with distilled water. The smaller of the two cotyledons was excised, the fresh weight determined, and 10 cotyledons placed adaxial side down on filter paper in Petri dishes containing 10 ml of KPO4 buffer (2 mM, pH 6.0) and the compounds to be tested at 20 mg/l. […] Chlorophyll content was determined after extraction of tissue into 80% ethanol (containing butylated hydroxytoluene (BHT) 10 mg/l) using the equations Chl a=(13.95A663)−(6.88A647) and Chl b=(24.96A652)−(7.32A663) as described by Lichtenthaler, HK, Methods in Enzymology 148: 350–382, 1987, incorporated by reference in its entirety. FIG. 6 illustrates the difference in cotyledon size in response to the cytokinin kinetin.

maize roots = assay: Corn root bioassay (ethylene production by maize roots); type: in vivo, Zea mays L.; settings: for activity at 20 µg/mL: Zea mays, read-out: Ethylene, % of control; for activity at 20 µg/mL / Ethylene / Ethylene, % of control: 20 mg/l; for increase of ethylene production (in words): other experiments using a different treatment time
Method: Corn root bioassay: It is well established that roots of Zea mays produce ethylene when exposed to a variety of stresses (for review, see Morgan, PW and Drew, MC, Physiologia Plantarum 100: 620–630, 1997). Mechanical impedance and hypoxia both induce ethylene formation and usually as early as 1 hour after exposure. In response to ethylene treatment, maize roots show decreased expansion and elongation, a high incidence of cell death and the formation of aerenchyma tissue—particularly evident when roots are exposed to hypoxic conditions (Drew, MC et al., Trends in Plant Science 5: 123–127, 2000, Morgan and Drew 1997).
Seeds of Zea mays L. were sown in flats of Perlite, covered with a layer of vermiculite, and irrigated daily with water and/or 1/10 Hoagland solution. Seedlings were cultivated under continuous illumination at 22–25° C. and used when 7 d old. Seedlings were removed from the Perlite and washed under running tap water. Seedlings were allowed to acclimate in water and/or 1/10 Hoagland solution for several hours before being transferred to Falcon tubes containing the test compounds (all 20 mg/l) prepared in 1/10 Hoagland solution. […] Roots were then transferred to gas-tight tubes each containing 200 μl of water. The tubes were sealed and incubated at 26° C. for 1–2 h in darkness before gas samples were drawn from the incubation tubes using a 1 ml syringe and assayed by gas chromatography (Romera, FJ et al. (1999) Annals of Botany 83, 51–55).

[2] = Table 2, 72 h incubation, 20 mg/l
[3] = experiment 1, 72 h illumination, roots incubated 2 h in gas tight tubes
[4] = experiment 2, 36 h illumination, roots incubated 2 h in darkness at 24° C.
[5] = Table 3, 48 h incubation, 20 mg/l

SMILES	Chlorophyll a/b ([1]; Experiment 1, 20 mg/l, 72 h)	Change in fresh weight ([1]; Experiment 1, 20 mg/l, 72 h)	Chlorophyll (mg/g FW) a + b ([1]; Experiment 2, 20 mg/l, 48 h)	Chlorophyll (μg/cotyledon) a + b ([1]; Experiment 2, 20 mg/l, 48 h)	Chlorophyll a/b ([1]; Experiment 2, 20 mg/l, 48 h)	Change in fresh weight ([1]; Experiment 2, 20 mg/l, 48 h)	activity at 20 µg/mL ([1]; Experiment 1, 20 mg/l, 72 h)	activity at 20 µg/mL ([1]; Experiment 2, 20 mg/l, 48 h)	ethylene-like activities (summary of the examples) [1]	hormone-like activity with respect to expansion growth (in words) [1, 5]	further results
NC1(C(=O)O)CC1 [ACC, 1-aminocyclopropane-1-carboxylic acid, reference compound]	3.7	5.54 ± 2.87 mg	1.42 mg/g FW	12.27 μg/cotyledon	1.8	4.25 ± 0.63 mg	40%	52%	–	–	–
c1coc(CNc2ncnc3[nH]cnc23)c1 [Kinetin, kinetin, reference compound]	1.2	23.74 ± 7.92 mg	0.81 mg/g FW	25.78 μg/cotyledon	1.8	27.26 ± 2.88 mg	169%	336%	–	–	–
O=CNCCO [NAE-1, N-Formyl-2-aminoethanol]	1.7	7.61 ± 3.42 mg	1.62 mg/g FW	21.19 μg/cotyledon	2.0	8.68 ± 1.70 mg	54%	107%	ethylene-like activities	–	Chlorophyll a + b ([1]; Experiment 1, 20 mg/l, 72 h): 0.59; cotyledon expansion (in words) [1, 2]: significantly slowed cotyledon expansion; activity at 20 µg/mL (maize roots; experiment 1, 72 h): 175%; activity at 20 µg/mL (maize roots; experiment 2, 36 h): 157%; Ethylene (maize roots; [3]): 1034.4 ± 255.3 nL/g FW/h; Ethylene (maize roots; [4]): 45.32 ± 18.98 pmol/g FW/h; increase of ethylene production (in words) (maize roots): effective
CC(=O)NCCO [NAE-2, N-Acetyl-2-aminoethanol]	1.3	12.52 ± 2.83 mg	1.94 mg/g FW	19.88 μg/cotyledon	2.0	5.86 ± 1.36 mg	89%	72%	ethylene-like activities	ethylene-like activity	chlorophyll accumulation (in words) [1, 2]: greater effect than other NAEs; cotyledon expansion (in words) [1, 5]: slowed cotyledon expansion; activity at 20 µg/mL (maize roots; experiment 1, 72 h): 146%; activity at 20 µg/mL (maize roots; experiment 2, 36 h): 160%; Ethylene (maize roots; [4]): 45.96 ± 12.53 pmol/g FW/h
CCCC(=O)NCCO [NAE-4:0, N-Butyroyl-2-aminoethanol]	–	–	2.00 mg/g FW	23.49 μg/cotyledon	1.9	7.15 ± 1.16 mg	–	88%	ethylene-like activities	ethylene-like activity	cytokinin-like activities (summary of the examples) [1]: cytokinin-like activities; increase of ethylene production (in words) (maize roots): effective
CCCCCC(=O)NCCO [NAE-6:0, N-Hexanoly-2-aminoethanol]	1.6	8.04 ± 3.86 mg	1.73 mg/g FW	19.80 μg/cotyledon	2.0	7.02 ± 0.98 mg	–	–	ethylene-like activities	ethylene-like activity	Change in fresh weight, % of control ([1]; Experiment 1, 20 mg/l, 72 h): 57%; Chlorophyll a + b ([1]; Experiment 1, 20 mg/l, 72 h): 0.65; Change in fresh weight, % of control ([1]; Experiment 2, 20 mg/l, 48 h): 87%; cotyledon expansion (in words) [1, 2]: significantly slowed cotyledon expansion; Ethylene, % of control (maize roots; Experiment 1, 72 h): 210%; Ethylene (maize roots; [3]): 1244.0 ± 406.2 nL/g FW/h; Ethylene, % of control (maize roots; experiment 2, 36 h): 141%; Ethylene (maize roots; [4]): 40.58 ± 11.85 pmol/g FW/h; relative efficacy on ethylene formation (in words) (maize roots; first experiment (Table 4)): strongest effect
CCCCCCCCCCCC(=O)NCCO [NAE-12:0, N-Dodecanoyl-2-aminoethanol]	–	–	1.79 mg/g FW	23.16 μg/cotyledon	2.0	8.53 ± 1.59 mg	–	–	–	–	activity at 20 µg/mL ([1]; 48 h): 105%; cytokinin-like activities (summary of the examples) [1]: cytokinin-like activities
CCCCCCCCCCCCCCCC(=O)NCCO [NAE-16:0, N-Hexadecanoyl-2-aminoethanol]	–	–	1.44 mg/g FW	24.18 μg/cotyledon	1.7	12.42 ± 2.26 mg	–	153%	–	cytokinin-like activity	chlorophyll content per unit mass (in words) [1, 5]: decreased chlorophyll content per unit mass; chlorophyll per cotyledon (in words) [1, 5]: increased chlorophyll per cotyledon; cytokinin-like activities (summary of the examples) [1]: cytokinin-like activities
CCCCCCCCCCCCCCCCCC(=O)NCCO [NAE-18:0, N-Octadecanoyl-2-aminoethanol]	–	–	1.85 mg/g FW	22.42 μg/cotyledon	1.9	7.75 ± 1.01 mg	–	96%	–	–	–
O=C(NCCO)c1ccccc1 [NAE-Bz, N-Benzoyl-2-aminoethanol]	–	–	1.77 mg/g FW	20.87 μg/cotyledon	1.8	7.36 ± 1.00 mg	–	91%	–	–	–
CCCCC(CC)C(=O)NCCO (stereo not shown) [NAE-EH, N-(2-Ethylhexanoyl)-2-aminoethanol]	–	–	1.63 mg/g FW	19.73 μg/cotyledon	1.8	7.69 ± 1.16 mg	–	95%	–	–	–

Reference: patent US7205261B2, “Use of certain N-acylethanolamines to achieve ethylene- and cytokinin-like effects in plants and fungi” (Nutra-Park, Inc., priority 2002, dated 2007)
